27 compounds from patent US20120264735A1 (priority 2009, published 2012) can be followed below.

A value given as a limit tells only on which side of the number the result lay.

The target in the test is T1, c-Met kinase (recombinant c-Met) (Homo sapiens, UniProt P08581).
T1 construct: 0.27 nM recombinant c-Met
T1 sequence (P08581 25-1390): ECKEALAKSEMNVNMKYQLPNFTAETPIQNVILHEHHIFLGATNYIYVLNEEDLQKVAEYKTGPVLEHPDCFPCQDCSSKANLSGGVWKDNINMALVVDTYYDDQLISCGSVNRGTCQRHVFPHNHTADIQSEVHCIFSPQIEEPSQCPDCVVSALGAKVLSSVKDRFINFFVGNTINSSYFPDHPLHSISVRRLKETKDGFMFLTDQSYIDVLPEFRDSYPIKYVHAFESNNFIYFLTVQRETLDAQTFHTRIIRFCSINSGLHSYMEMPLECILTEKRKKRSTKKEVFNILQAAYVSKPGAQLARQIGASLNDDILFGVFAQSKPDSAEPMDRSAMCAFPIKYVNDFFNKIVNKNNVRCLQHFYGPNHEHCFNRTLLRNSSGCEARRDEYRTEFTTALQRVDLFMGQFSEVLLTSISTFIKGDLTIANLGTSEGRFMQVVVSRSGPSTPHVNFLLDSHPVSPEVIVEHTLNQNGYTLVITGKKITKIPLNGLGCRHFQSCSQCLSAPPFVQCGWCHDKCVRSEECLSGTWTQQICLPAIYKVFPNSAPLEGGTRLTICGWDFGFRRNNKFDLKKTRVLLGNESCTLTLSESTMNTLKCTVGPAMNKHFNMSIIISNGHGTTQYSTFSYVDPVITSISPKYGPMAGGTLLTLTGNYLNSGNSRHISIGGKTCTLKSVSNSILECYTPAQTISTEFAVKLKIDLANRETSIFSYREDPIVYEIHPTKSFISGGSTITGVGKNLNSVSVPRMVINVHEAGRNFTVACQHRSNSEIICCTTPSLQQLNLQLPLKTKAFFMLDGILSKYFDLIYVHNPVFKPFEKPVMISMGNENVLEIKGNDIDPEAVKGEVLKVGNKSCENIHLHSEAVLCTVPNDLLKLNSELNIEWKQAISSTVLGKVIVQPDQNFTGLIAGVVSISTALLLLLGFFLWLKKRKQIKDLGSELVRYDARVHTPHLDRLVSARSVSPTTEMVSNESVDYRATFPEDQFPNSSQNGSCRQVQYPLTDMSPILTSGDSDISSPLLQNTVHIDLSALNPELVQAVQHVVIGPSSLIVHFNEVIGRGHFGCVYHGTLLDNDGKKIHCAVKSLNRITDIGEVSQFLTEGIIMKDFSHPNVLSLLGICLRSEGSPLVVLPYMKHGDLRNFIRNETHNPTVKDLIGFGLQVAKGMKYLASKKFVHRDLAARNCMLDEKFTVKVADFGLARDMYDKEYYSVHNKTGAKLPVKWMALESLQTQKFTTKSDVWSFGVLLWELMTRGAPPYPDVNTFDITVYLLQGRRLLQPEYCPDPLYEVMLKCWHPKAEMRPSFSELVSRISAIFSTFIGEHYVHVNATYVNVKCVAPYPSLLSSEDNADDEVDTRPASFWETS
In words: In vitro kinase assay I (homogeneous time-resolved fluorescence tyrosine kinase assay). Type of test: biochemical. The procedure, abridged: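 Biotinylated peptide (0.5 μM) phosphorylated by 0.2 nM recombinant c-Met with 50 μM MgATP, 60 min at room temperature, pH 7.4, 5% DMSO. EDTA stop; HTRF read with Eu-anti-phosphotyrosine antibody and streptavidin-APC. IC50 from 4-parameter logistic fit.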
By IC50 is commonly meant the concentration at which inhibition is half-maximal. In the case of `COCCOc1cnc(-c2cccc(Cc3nn(-c4cnn(C)c4)ccc3=O)c2)nc1` [Example 4, 3-{3-[5-(2-Methoxyethoxy)pyrimidin-2-yl]benzyl}-1-(1-methyl-1H-pyrazol-4-yl)pyridazin-4(1H)-one], the IC50 is less than 100 nM.

Take `COc1cnc(-c2cccc(Cc3nn(-c4cnn(C)c4)ccc3=O)c2)nc1` [Example 5, 3-[3-(5-Methoxypyrimidin-2-yl)benzyl]-1-(1-methyl-1H-pyrazol-4-yl)pyridazin-4(1H)-one]: the 50% inhibitory concentration (IC50) was less than 100 nM.

For the compound `CC(C)(O)COc1cnc(-c2cccc(Cc3nn(-c4cc(F)cc(C#N)c4)ccc3=O)c2)nc1` [Example 6, 3-Fluoro-5-[3-{3-[5-(2-hydroxy-2-methylpropoxy)pyrimidin-2-yl]benzyl}-4-oxopyridazin-1(4H)-yl]benzonitrile], the IC50 was less than 100 nM.

As to `CC(C)COC(=O)Nc1cccc(Cc2nn(-c3cc(F)c(F)c(F)c3)ccc2=O)c1` [Example 7, 2-methylpropyl (3-{[4-oxo-1-(3,4,5-trifluorophenyl)-1,4-dihydropyridazin-3-yl]methyl}phenyl)carbamate], the half-inhibitory concentration (IC50) is less than 100 nM.

As for `CCCOC(=O)Nc1cccc(Cc2nn(-c3cc(F)c(F)c(F)c3)ccc2=O)c1` [Example 8, propyl (3-{[4-oxo-1-(3,4,5-trifluorophenyl)-1,4-dihydropyridazin-3-yl]methyl}phenyl)carbamate], the concentration for half-maximal inhibition (IC50) was less than 100 nM.

With `COc1cnc(-c2cccc(Cc3nn(-c4cc(F)c(F)c(F)c4)ccc3=O)c2)nc1` [Example 9, 3-[3-(5-methoxypyrimidin-2-yl)benzyl]-1-(3,4,5-trifluorophenyl)pyridazin-4(1H)-one], the IC50 is less than 100 nM.

Take `O=c1ccn(-c2cc(F)c(F)c(F)c2)nc1Cc1ccc2ncnn2c1` [Example 10, 3-([1,2,4]triazolo[1,5-a]pyridin-6-ylmethyl)-1-(3,4,5-trifluorophenyl)pyridazin-4(1H)-one]: the concentration for half-maximal inhibition (IC50) is 1000 to 3000 nM.

As for `CCOC(=O)Nc1cccc(Cc2nn(-c3cc(F)cc(F)c3)ccc2=O)c1` [Example 11, ethyl (3-{[1-(3,5-difluorophenyl)-4-oxo-1,4-dihydropyridazin-3-yl]methyl}phenyl)carbamate], the half-inhibitory concentration (IC50) is less than 100 nM.

On to `CCCOC(=O)Nc1cccc(Cc2nn(-c3cccc(Br)c3)ccc2=O)c1` [Example 12, propyl (3-{[1-(3-bromophenyl)-4-oxo-1,4-dihydropyridazin-3-yl]methyl}phenyl)carbamate], for which the half-maximal inhibitory concentration (IC50) is less than 100 nM.

Turning to `CCOC(=O)Nc1cccc(Cc2nn(-c3cccc(Br)c3)ccc2=O)c1` [Example 13, ethyl (3-{[1-(3-bromophenyl)-4-oxo-1,4-dihydropyridazin-3-yl]methyl}phenyl)carbamate], the IC50 was less than 100 nM.

For `CCCOC(=O)Nc1cccc(Cc2nn(-c3ccc(Br)cc3)ccc2=O)c1` [Example 14, propyl (3-{[1-(4-bromophenyl)-4-oxo-1,4-dihydropyridazin-3-yl]methyl}phenyl)carbamate], the IC50 was less than 100 nM.

On to `COC(=O)c1cnc(-c2cccc(Cc3nn(-c4cnn(C)c4)ccc3=O)c2)nc1` [Example 15, methyl 2-(3-{[1-(1-methyl-1H-pyrazol-4-yl)-4-oxo-1,4-dihydropyridazin-3-yl]methyl}phenyl)pyrimidine-5-carboxylate], for which the IC50 is less than 100 nM.

Regarding `CCCOC(=O)Nc1cccc(Cc2nn(-c3cc(F)c(Br)c(F)c3)ccc2=O)c1` [Example 16, propyl (3-{[1-(4-bromo-3,5-difluorophenyl)-4-oxo-1,4-dihydropyridazin-3-yl]methyl}phenyl)carbamate], the IC50 was less than 100 nM.

For `CC(C)COC(=O)Nc1cccc(Cc2nn(-c3cc(F)cc(F)c3)ccc2=O)c1` [Example 17, 2-methylpropyl (3-{[1-(3,5-difluorophenyl)-4-oxo-1,4-dihydropyridazin-3-yl]methyl}phenyl)carbamate], the IC50 is less than 100 nM.

For `CCOC(=O)Nc1cccc(Cc2nn(-c3ccc(Br)cc3)ccc2=O)c1` [Example 18, ethyl (3-{[1-(4-bromophenyl)-4-oxo-1,4-dihydropyridazin-3-yl]methyl}phenyl)carbamate], the IC50 is less than 100 nM.

In the case of `Cc1cnc(-c2cccc(Cc3nn(-c4cnn(C)c4)ccc3=O)c2)s1` [Example 19, 1-(1-methyl-1H-pyrazol-4-yl)-3-[3-(5-methyl-1,3-thiazol-2-yl)benzyl]pyridazin-4(1H)-one], the IC50 was less than 100 nM.

In the case of `Cn1cc(-n2ccc(=O)c(Cc3cccc(-c4nccs4)c3)n2)cn1` [Example 20, 1-(1-methyl-1H-pyrazol-4-yl)-3-[3-(1,3-thiazol-2-yl)benzyl]pyridazin-4(1H)-one], the IC50 is 100 to 1000 nM.

With `Cn1cc(-n2ccc(=O)c(Cc3cccc(-n4cccn4)c3)n2)cn1` [Example 21, 1-(1-methyl-1H-pyrazol-4-yl)-3-[3-(1H-pyrazol-1-yl)benzyl]pyridazin-4(1H)-one], the IC50 was in the range of 1000 to 3000 nM.

`O=C(Nc1cccc(Cc2nn(-c3ccc(F)c(F)c3)ccc2=O)c1)OCCN1CCOCC1` [Example 22, 2-morpholin-4-ylethyl (3-{[1-(3,4-difluorophenyl)-4-oxo-1,4-dihydropyridazin-3-yl]methyl}phenyl)carbamate]: the IC50 was less than 100 nM.

Turning to `Cn1cc(-n2ccc(=O)c(Cc3ccc4[nH]c(=O)[nH]c4c3)n2)cn1` [Example 23, 5-{[1-(1-methyl-1H-pyrazol-4-yl)-4-oxo-1,4-dihydropyridazin-3-yl]methyl}-1,3-dihydro-2H-benzimidazol-2-one], the IC50 was in the range of 100 to 1000 nM.

For the compound `Cn1cc(-n2ccc(=O)c(Cc3ccc4oc(=O)[nH]c4c3)n2)cn1` [Example 24, 5-{[1-(1-methyl-1H-pyrazol-4-yl)-4-oxo-1,4-dihydropyridazin-3-yl]methyl}-1,3-benzoxazol-2(3H)-one], the half-maximal inhibitory concentration (IC50) was in the range of 1000 to 3000 nM.

`CCOC(=O)Nc1cccc(Cc2nn(-c3ccn(C)n3)ccc2=O)c1` [Example 25, ethyl (3-{[1-(1-methyl-1H-pyrazol-3-yl)-4-oxo-1,4-dihydropyridazin-3-yl]methyl}phenyl)carbamate]: the half-inhibitory concentration (IC50) lay within 100 to 1000 nM.

`CC(C)COC(=O)Nc1cccc(Cc2nn(-c3ccn(C)n3)ccc2=O)c1` [Example 26, 2-methylpropyl (3-{[1-(1-methyl-1H-pyrazol-3-yl)-4-oxo-1,4-dihydropyridazin-3-yl]methyl}phenyl)carbamate]: the IC50 was less than 100 nM.

Regarding `CCCOC(=O)Nc1cccc(Cc2nn(-c3ccn(C)n3)ccc2=O)c1` [Example 27, propyl (3-{[1-(1-methyl-1H-pyrazol-3-yl)-4-oxo-1,4-dihydropyridazin-3-yl]methyl}phenyl)carbamate], the concentration for half-maximal inhibition (IC50) was 100 to 1000 nM.

With `CCCOC(=O)Nc1cccc(Cc2nn(-c3cccnc3)ccc2=O)c1` [Example 28, propyl {3-[(4-oxo-1-pyridin-3-yl-1,4-dihydropyridazin-3-yl)methyl]phenyl}carbamate], the IC50 is less than 100 nM.

As for `O=c1ccn(-c2cccnc2)nc1Cc1cccc(-c2ncccn2)c1` [Example 29, 1-pyridin-3-yl-3-(3-pyrimidin-2-ylbenzyl)pyridazin-4(1H)-one], the IC50 was in the range of 100 to 1000 nM.

Turning to `CCCOC(=O)Nc1cccc(Cc2nn(-c3ccncc3)ccc2=O)c1` [Example 30, propyl {3-[(4-oxo-1-pyridin-4-yl-1,4-dihydropyridazin-3-yl)methyl]phenyl}carbamate], the IC50 was less than 100 nM.
